{
  "source": "ChEMBL document CHEMBL5252635",
  "about": "“The Mycobacterium tuberculosis mycothiol S-transferase is divalent metal-dependent for mycothiol binding and transfer” (2023)",
  "key": {"[1]": {"target": "T1, Conserved protein (Mycobacterium tuberculosis) (UniProt O53728)", "T1 sequence (whole entry)": "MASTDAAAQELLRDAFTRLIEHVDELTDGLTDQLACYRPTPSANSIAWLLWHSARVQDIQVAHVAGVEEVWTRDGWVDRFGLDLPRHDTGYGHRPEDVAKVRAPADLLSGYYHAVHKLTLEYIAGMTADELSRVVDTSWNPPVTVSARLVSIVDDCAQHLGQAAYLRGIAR", "description": "Binding affinity to Mycobacterium tuberculosis MST assessed as melting temperature in presence of zinc by differential scanning fluorimetry method"}, "[2]": {"target": "T1, Conserved protein (Mycobacterium tuberculosis)", "remark": "listed apart in the source", "description": "Binding affinity to Mycobacterium tuberculosis MST assessed as melting temperature in presence of nickle by differential scanning fluorimetry method"}, "[3]": {"target": "T1, Conserved protein (Mycobacterium tuberculosis)", "remark": "listed apart in the source", "description": "Binding affinity to Mycobacterium tuberculosis MST assessed as melting temperature in presence of cobalt by differential scanning fluorimetry method"}, "[4]": {"target": "T1, Conserved protein (Mycobacterium tuberculosis)", "remark": "listed apart in the source", "description": "Binding affinity to Mycobacterium tuberculosis MST assessed as change in melting temperature in presence of zinc by differential scanning fluorimetry method"}, "[5]": {"target": "T1, Conserved protein (Mycobacterium tuberculosis)", "remark": "listed apart in the source", "description": "Binding affinity to Mycobacterium tuberculosis MST assessed as melting temperature in presence of ferrous by differential scanning fluorimetry method"}, "[6]": {"target": "T1, Conserved protein (Mycobacterium tuberculosis)", "remark": "listed apart in the source", "description": "Binding affinity to Mycobacterium tuberculosis MST assessed as melting temperature by differential scanning fluorimetry method"}, "[7]": {"target": "T1, Conserved protein (Mycobacterium tuberculosis)", "remark": "listed apart in the source", "description": "Binding affinity to Mycobacterium tuberculosis MST assessed as change in melting temperature in presence of nickle by differential scanning fluorimetry method"}, "[8]": {"target": "T1, Conserved protein (Mycobacterium tuberculosis)", "remark": "listed apart in the source", "description": "Binding affinity to Mycobacterium tuberculosis MST assessed as change in melting temperature in presence of ferrous by differential scanning fluorimetry method"}, "[9]": {"target": "T1, Conserved protein (Mycobacterium tuberculosis)", "remark": "listed apart in the source", "description": "Binding affinity to Mycobacterium tuberculosis MST assessed as change in melting temperature in presence of cobalt by differential scanning fluorimetry method"}},
  "data": [
    {"smiles": "CC(=O)N[C@@H](CS)C(=O)N[C@H]1[C@@H](O[C@@H]2[C@H](O)[C@H](O)[C@@H](O)[C@H](O)[C@H]2O)O[C@H](CO)[C@@H](O)[C@@H]1O", "values": [
      {"measurement": "Tm", "setting": "[1]", "result": 71.9, "unit": "°C"},
      {"measurement": "Tm", "setting": "[2]", "result": 68.9, "unit": "°C"},
      {"measurement": "Tm", "setting": "[3]", "result": 65.1, "unit": "°C"},
      {"measurement": "ΔTm", "setting": "[4]", "result": 12.9, "unit": "°C"},
      {"measurement": "Tm", "setting": "[5]", "result": 62.2, "unit": "°C"},
      {"measurement": "Tm", "setting": "[6]", "result": 59, "unit": "°C"},
      {"measurement": "ΔTm", "setting": "[7]", "result": 9.9, "unit": "°C"},
      {"measurement": "ΔTm", "setting": "[8]", "result": 3.2, "unit": "°C"},
      {"measurement": "ΔTm", "setting": "[9]", "result": 6.1, "unit": "°C"}
    ]}
  ]
}
